According to US20160137714A1 (Thrasos Innovation, Inc., priority 2014, published 2016):
“Also recorded” adds a separate entry of the source. One block for each molecule: values may come before it. Positions of bridges follow the written chain, without caps; N, C: chain ends. Non-standard residues stand in square brackets, D forms with d. Residues, ends and D or L forms follow the SMILES beside them. No end group written: not given here.

Tests used:
FIGURE 31 (2/2) = assay: FIGURE 31 (2/2)
Experimental: Table printed on a drawing sheet, FIGURE 31 (2/2)
Peptide to internal standard peak area ratios were used calculate percentage remaining peptide at 60 minutes and 120 minutes. Peptides are identified by GPR number (GPR#) and SEQ ID NO.
First reader's note: Second part (2/2) of Figure 31, continued from the previous sheet; in the last row (GPR 478) the empty N-Terminal cell is merged with position 1.

[1] = tested on: Adriamycin (ADR)-induced proteinuria; assay: Adriamycin (ADR)-induced nephropathy model; type: in vivo; conditions: rat
Excerpt: Adriamycine (doxorubicin) is a drug used in chemotherapy. It is known to cause undesirable renal toxicitiy in rat, mainly glomerular damage (via podocyte injury/loss), resulting in proteinuric neophrapthy (Hakroush et al., 2014, J. Am. Soc. Nephrology, 25:927-38), and it is the prototypical model of human primary focal and segmental glomerulosclerosis. ADR-induced mephropathy, in mouse or rat, is a robust in vivo model of proteinuria that can easily and directly be measured in urine, thus allowing for monitoring of disease progression in living animals. It is induced by a single intravenous injection of ADR.
Male CD rats (aged 8 weeks) were acclimatized in the facility for at least 5 days. On Day 0, rats received Adriamycin at a dose level of 7.5 mg/kg by tail vein administration at a dose volume of 5 mL/kg. If needed, an abbocath was used for administration. The abbocath will be flushed with 0.5 mL of 0.9% saline after Adriamycin injection. […]
Once pretreatment and on pre-determined days (e.g. days 5, 10, 15, 20) blood samples (0.7 mL) was collected from the jugular vein in SST tubes and analyzed for serum creatinine and BUN. Once pretreatment and on pre-determined days (e.g. days 5, 10, 15, 20) urine samples were collected overnight from individually housed animals. After collection, serum and urine samples were processed and analyzed for creatinine (serum & urine), BUN (serum) and total protein (urine). […] The time the animals are placed in urine collection cages and time of sample collection was recorded. […]
Once pretreatment and on Day 21, blood samples (0.7 mL) were collected from the jugular vein in SST tubes and analyzed for serum creatinine and BUN. Once pretreatment and on pre-determined days (Days 5, 10, 15, 21) urine samples were collected overnight from individually housed animals. After collection, serum and urine samples were processed and analyzed for creatinine (serum & urine), BUN (serum) and total protein (urine). […] The time the animals are placed in urine collection cages and time of sample collection was recorded. […]

[2] = rat kidney tissue 10 minutes post IV administration; conditions: up to 10 minutes
[3] = Pharmacokinetic studies of THR-123 and GPR-294 i.v. and s.c. (FIG. 13, FIGS. 5-8); type: in vivo
Experimental: A stock solution of THR-123 was prepared at 250 μg/mL in DMSO. This solution was quantitatively added to blank mouse plasma to generate a calibration curve. The linear range was from 0.25 to 250 ng/mL. A 175 μL aliquot of plasma from removed from each calibrant tube and processed using solid phase extraction (SPE). Study samples were first diluted with blank control mouse plasma, and 175 μL was aliquoted for processing using SPE. An internal standard working solution (ISWS) was added to each calibrant and study sample (GPR-227 at 100 ng/mL in water). Plasma proteins were precipitated with 175 μL of methanol with 0.5% acetic acid (v/v). After centrifugation at 14,800 RPM for 10 minutes, a 300 μL aliquot of supernatant was diluted in water with 4% phosphoric acid (v/v). The entire diluted sample was extracted by SPE using a Waters Oasis HLB 96-well μElution plate. Samples were washed twice using a solution of acidified water (0.1% TFA, v/v) and 15% MeOH in water (v/v). Purified extracts were eluted into a 96-well collection plate using 40 μL of elution solvent. Standards and study samples were injected onto a Thermo Q-exactive LC-MS/MS system. Chromatographic separation was performed using a reversed-phase C18 HPLC column (Waters CSH C18, 50×2.1 mm, 2.5 μm). Analyte and internal standard were detected using the targeted selected ion monitoring (tSIM) scan mode. Calibration curves were generated by using a weighted (1/concentration^2) linear regression of the peak area ratios (analyte/internal standard) versus the nominal concentration of the calibration standards. The concentration of the analyte in the study samples was determined by back-calculating the peak area ratios obtained using the linear regression and applying the appropriate dilution factors.
The study described herein involved single (mouse) or multiple (rat) blood collections after test article administration. Test articles are given by oral (PO), intravenous (IV), subcutaneous (SC) or intraperitoneal (IP) routes. All animals have a five day acclimatization period before dosing. Body weights are recorded prior to dosing. […]

Ex-vivo plasma stability = type: in vitro ADME, mouse or rat
Experimental: Test article is added to fresh mouse or rat plasma at a final in-vial concentration of 1 μM. The peptide is incubated in a water bath at 37° C. over a time course that included the following points (in minutes): 0, 15, 30, 60, 120, 240, and 1440. After the incubation time is completed, a 50 μL aliquot of plasma is removed and proteins are precipitated using a solution containing internal standard (THR-123 at 150 ng/mL) in methanol with 0.5% acetic acid (v/v). The samples are centrifuged at 13,000 RPM for 5 minutes, and a 100 μL aliquot of supernatant is removed and transferred to a 96-well plate containing 200 μL of reconstitution solution (Water/MeOH/Acetic Acid/TFA, 60/40/0.2/0.05, v/v/v/v). A calibration curve and quality control (QC) samples are prepared in parallel in the same manner as the incubation samples. The calibration range for this assay is from 0.02 to 2.0 μM in rat or mouse plasma. The extracted calibrants, QC, and incubation samples are injected onto an AB SCIEX API 2000 LC-MS/MS system. Chromatographic separation is performed using a reversed-phase C18 HPLC column (Ace-3 C18, 30×2.1 mm, 3 μm). The solvent system consists of Milli-Q water, acetonitrile and formic acid. Analyte and internal standard are detected using the multiple reaction monitoring (MRM) scan mode. Calibration curves are generated by using a weighted (1/concentration) quadratic regression analysis of the peak area ratios (analyte/internal standard) versus the nominal concentration of the calibration standards. The concentration of the analyte in the incubation samples is determined by back-calculating the peak area ratios obtained using the quadratic regression.

[4] = fresh mouse or rat plasma; conditions: 37° C., up to 120 min (Table 6; protocol lists up to 1440)
[5] = plasma after s.c. administration of 1 mg/kg Compound III; after IV administration

Molecule: CCOC(=O)[C@H](CCc1ccccc1)N[C@@H](C)C(=O)N1CCC[C@H]1C(=O)O [Enalapril]
ADR-induced renal lesions in H&E-stained kidney sections ([1]; 21 days post ADR, treated daily, glomerular hypertrophy, protein casts, tubular dilation, neutrophils): absent or reduced in number
effect on ADR-induced proteinuria (urine protein to urine creatinine) ([1]; ADR 7.5 mg/kg, daily for 21 days, GPR-405 300 nmol/kg sc, enalapril 50 mg/kg po): efficacious
effect on serum creatinine (sCr) and blood urea nitrogen (BUN) ([1]; following Adriamycin treatment, GPR-405 300 nmol/kg sc, enalapril 50 mg/kg po, FIG. 24): Neither enalapril nor GPR-405 had any marked effect

Molecule: CYFDDSSNVLCKKYRS (cysteine pairing not given here)
cleaved bond [2]: Y14-R15, major, 10 minutes
fragment found [2]: VI (GPR-263) Cys-Tyr-Phe-Asp-Asp-Ser-Ser-Asn-Val-Leu-Cys, 10 minutes; also recorded: VIII (GPR-262) Cys-Tyr-Phe-Asp-Asp-Ser-Ser-Asn-Val-Leu-Cys-Lys, 10 minutes; also recorded: IX (GPR-261) Cys-Tyr-Phe-Asp-Asp-Ser-Ser-Asn-Val-Leu-Cys-Lys-Lys, 10 minutes

Molecule: Cys-Tyr-Phe-Asp-Asp-Ser-Ser-Asn-Val-Leu-Cys-Lys-Lys-D-tyr-Arg-Ser
not cleaved [5]: prevented the proteolytic cleavage between the amino acids 14 and 15

Now from value to molecule, other results behind:

% Remaining at 60 and 120 minutes | 60 (FIGURE 31 (2/2)): 87.7%
% Remaining at 60 and 120 minutes | 120 (FIGURE 31 (2/2)): 78.9%
Molecule: Y Y F S S S F V L C K R y* R S [478 | 68]

bioavailability ([3]; in vivo, s.c. versus i.v., FIG. 13, read-out: bioavailable by sub-cutaneous administration): 100%
remaining at 1 h (Ex-vivo plasma stability; fresh plasma 37° C., 1 μM, 60 min, read-out: Percent remaining 60 min): 72.6%
remaining at 2 h (Ex-vivo plasma stability; fresh plasma 37° C., 1 μM, 120 min, read-out: Percent remaining 120 min): 67.9%
stability toward plasma proteolytic cleavage (Ex-vivo plasma stability; versus THR-123, rat plasma (FIGS. 3 and 4)): enhanced
Molecule: CC(C)C[C@@H]1NC(=O)[C@H](C(C)C)NC(=O)[C@H](CC(N)=O)NC(=O)[C@H](CO)NC(=O)[C@H](CO)NC(=O)[C@H](CC(=O)O)NC(=O)[C@H](CC(=O)O)NC(=O)[C@H](Cc2ccccc2)NC(=O)[C@H](Cc2ccc(O)cc2)NC(=O)[C@@H](N)CSSC[C@@H](C(=O)N[C@@H](CCCCN)C(=O)N[C@@H](CCCCN)C(=O)N[C@H](Cc2ccc(O)cc2)C(=O)N[C@@H](CCCNC(=N)N)C(=O)N[C@@H](CO)C(=O)O)NC1=O [GPR-294, Cys-Tyr-Phe-Asp-Asp-Ser-Ser-Asn-Val-Leu-Cys-Lys-Lys-D-tyr-Arg-Ser] (H-CYFDDSSNVLCKK[dY]RS-OH; disulfide 1-11)
plasma half-life compared with THR-123 ([3]; by either route of administration (i.v., s.c.)): much longer plasma half-life than the non-stabilized THR-123

not cleaved [4]: 94.7 percent remaining at 120 min
Molecule: Cys-Tyr-Tyr-Asp-Asp-Ser-Ser-Ser-Val-Leu-Cys-Lys-Lys-D-tyr-Arg-Ser
